How the values were obtained:
Settings in all cases: incubation time: 72 h
MDA-MB-468 [1] = experiment: normalised response (% of control), CellTox Green; higher = less cell death (100 = DMSO, 0 = benzethonium chloride kill control)
Procedure, shortened: (§1)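 Compound was dispensed into 384-well plates at 5 concentrations in 10-fold steps spanning a 10,000-fold range specific to that compound. Breast cancer cell lines were added as 20 µl suspension and left for 72 h before CellTox Green fluorescence (485/520 nm) and then CellTiter-Glo luminescence, read after 10 min at room temperature. Each reported value is the normalised signal at one concentration, with 0.1 % DMSO set at 100 and a positive kill control at 0 on each plate.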

BT-474 [2] = experiment: as above
Procedure, shortened: as §1

HDQ-P1 [3] = experiment: as above
Procedure, shortened: as §1

CAL-85-1 [4] = experiment: as above
Procedure, shortened: as §1

Hs578T [5] = experiment: as above
Procedure, shortened: as §1

HCC1937 [6] = experiment: as above
Procedure, shortened: as §1

CAL-148 [7] = experiment: as above
Procedure, shortened: as §1

BT-549 [8] = experiment: as above
Procedure, shortened: as §1

MFM-223 [9] = experiment: as above
Procedure, shortened: as §1

CAL-51 [10] = experiment: as above
Procedure, shortened: as §1

MDA-MB-453 [11] = experiment: as above
Procedure, shortened: as §1

HCC1143 [12] = experiment: as above
Procedure, shortened: as §1

DU-4475 [13] = experiment: as above
Procedure, shortened: as §1

MDA-MB-436 [14] = experiment: as above
Procedure, shortened: as §1

HCC1599 [15] = experiment: as above
Procedure, shortened: as §1

MDA-MB-231 [16] = experiment: as above
Procedure, shortened: as §1

CAL-120 [17] = experiment: as above
Procedure, shortened: as §1

MCF-10A [18] = experiment: as above
Procedure, shortened: as §1

MDA-MB-468 [19] = experiment: normalised response (% of control), CellTiter-Glo; higher = more viable cells (100 = DMSO, 0 = benzethonium chloride kill control)
Procedure: (§2)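 DSRT, 72 h incubation, CellTox Green / CellTiter-Glo readout. Signal is normalised to DMSO and benzethonium chloride controls. Value is the normalised response at dose 3.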

BT-474 [20] = experiment: as above
Procedure: as §2

HDQ-P1 [21] = experiment: as above
Procedure: as §2

CAL-85-1 [22] = experiment: as above
Procedure: as §2

HCC1937 [23] = experiment: as above
Procedure: as §2

CAL-148 [24] = experiment: as above
Procedure: as §2

BT-549 [25] = experiment: as above
Procedure: as §2

MFM-223 [26] = experiment: as above
Procedure: as §2

CAL-51 [27] = experiment: as above
Procedure: as §2

SK-BR-3 [28] = experiment: as above
Procedure: as §2

MDA-MB-453 [29] = experiment: as above
Procedure: as §2

HCC1143 [30] = experiment: as above
Procedure: as §2

DU-4475 [31] = experiment: as above
Procedure: as §2

MDA-MB-436 [32] = experiment: as above
Procedure: as §2

HCC1599 [33] = experiment: as above
Procedure: as §2

MDA-MB-231 [34] = experiment: as above
Procedure: as §2

CAL-120 [35] = experiment: as above
Procedure: as §2

MCF-10A [36] = experiment: as above
Procedure: as §2

MDA-MB-468 [37] = experiment: normalised response (% of control), CellTiter-Glo; higher = more viable cells (100 = DMSO, 0 = benzethonium chloride kill control); remark: listed apart in the source
Procedure, shortened: as §1

BT-474 [38] = experiment: as above; remark: listed apart in the source
Procedure, shortened: as §1

HDQ-P1 [39] = experiment: as above; remark: listed apart in the source
Procedure, shortened: as §1

CAL-85-1 [40] = experiment: as above; remark: listed apart in the source
Procedure, shortened: as §1

Hs578T [41] = experiment: as above
Procedure, shortened: as §1

HCC1937 [42] = experiment: as above; remark: listed apart in the source
Procedure, shortened: as §1

CAL-148 [43] = experiment: as above; remark: listed apart in the source
Procedure, shortened: as §1

BT-549 [44] = experiment: as above; remark: listed apart in the source
Procedure, shortened: as §1

MFM-223 [45] = experiment: as above; remark: listed apart in the source
Procedure, shortened: as §1

CAL-51 [46] = experiment: as above; remark: listed apart in the source
Procedure, shortened: as §1

SK-BR-3 [47] = experiment: as above; remark: listed apart in the source
Procedure, shortened: as §1

MDA-MB-453 [48] = experiment: as above; remark: listed apart in the source
Procedure, shortened: as §1

HCC1143 [49] = experiment: as above; remark: listed apart in the source
Procedure, shortened: as §1

DU-4475 [50] = experiment: as above; remark: listed apart in the source
Procedure, shortened: as §1

MDA-MB-436 [51] = experiment: as above; remark: listed apart in the source
Procedure, shortened: as §1

HCC1599 [52] = experiment: as above; remark: listed apart in the source
Procedure, shortened: as §1

MDA-MB-231 [53] = experiment: as above; remark: listed apart in the source
Procedure, shortened: as §1

CAL-120 [54] = experiment: as above; remark: listed apart in the source
Procedure, shortened: as §1

MCF-10A [55] = experiment: as above; remark: listed apart in the source
Procedure, shortened: as §1

For Cn1c(=O)n(-c2ccc(C(C)(C)C#N)cc2)c2c3cc(-c4cnc5ccccc5c4)ccc3ncc21 [Dactolisib] (10 nM), the normalised response (MDA-MB-468 [1]) was 130%, the normalised response (BT-474 [2]) was 101% and the normalised response (HDQ-P1 [3]) was 116%. It also gave a normalised response (CAL-85-1 [4]) of 101%, a normalised response (Hs578T [5]) of 116% and a normalised response (HCC1937 [6]) of 122%. For the same compound, the normalised response (CAL-148 [7]) was 103%, the normalised response (BT-549 [8]) was 110% and the normalised response (MFM-223 [9]) was 104%. The normalised response (CAL-51 [10]) was 113%, the normalised response (MDA-MB-453 [11]) was 108% and the normalised response (HCC1143 [12]) was 55.5%. It also gave a normalised response (DU-4475 [13]) of 104%, a normalised response (MDA-MB-436 [14]) of 102% and a normalised response (HCC1599 [15]) of 115%. For the same compound, the normalised response (MDA-MB-231 [16]) was 120%, the normalised response (CAL-120 [17]) was 98.7% and the normalised response (MCF-10A [18]) was 108%. It also gave a normalised response (MDA-MB-468 [19]) of 84.3%, a normalised response (BT-474 [20]) of 80.5% and a normalised response (HDQ-P1 [21]) of 80.1%. For the same compound, the normalised response (CAL-85-1 [22]) was 62.9%, the normalised response (HCC1937 [23]) was 85.5% and the normalised response (CAL-148 [24]) was 88.5%. For the same compound, the normalised response (BT-549 [25]) was 61.5%, the normalised response (MFM-223 [26]) was 83.8% and the normalised response (CAL-51 [27]) was 68.4%. For the same compound, the normalised response (SK-BR-3 [28]) was 73.6%, the normalised response (MDA-MB-453 [29]) was 75.9% and the normalised response (HCC1143 [30]) was 78%. The normalised response (DU-4475 [31]) was 96.3%, the normalised response (MDA-MB-436 [32]) was 65.9% and the normalised response (HCC1599 [33]) was 97.5%. It also gave a normalised response (MDA-MB-231 [34]) of 80.3%, a normalised response (CAL-120 [35]) of 62.1% and a normalised response (MCF-10A [36]) of 99.8%.
Cn1cncc1[C@@](N)(c1ccc(Cl)cc1)c1ccc2c(c1)c(-c1cccc(Cl)c1)cc(=O)n2C [Tipifarnib] (1000 nM) gave a normalised response (MDA-MB-468 [1]) of 105%, a normalised response (BT-474 [2]) of 100% and a normalised response (HDQ-P1 [3]) of 102%. The normalised response (CAL-85-1 [4]) was 98.8%, the normalised response (Hs578T [5]) was 108% and the normalised response (HCC1937 [6]) was 45.6%. It also gave a normalised response (CAL-148 [7]) of 96%, a normalised response (BT-549 [8]) of 136% and a normalised response (MFM-223 [9]) of 101%. For the same compound, the normalised response (CAL-51 [10]) was 57.2%, the normalised response (MDA-MB-453 [11]) was 107% and the normalised response (HCC1143 [12]) was 110%. The normalised response (DU-4475 [13]) was 95.6%, the normalised response (MDA-MB-436 [14]) was 94.4% and the normalised response (HCC1599 [15]) was 90.8%. It also gave a normalised response (MDA-MB-231 [16]) of 103%, a normalised response (CAL-120 [17]) of 97.4% and a normalised response (MCF-10A [18]) of 73.9%. The normalised response (MDA-MB-468 [37]) was 74.9%, the normalised response (BT-474 [38]) was 80.5% and the normalised response (HDQ-P1 [39]) was 76.4%. The normalised response (CAL-85-1 [40]) was 110%, the normalised response (Hs578T [41]) was 80.6% and the normalised response (HCC1937 [42]) was 74.5%. The normalised response (CAL-148 [43]) was 66.8%, the normalised response (BT-549 [44]) was 75.1% and the normalised response (MFM-223 [45]) was 73.8%. For the same compound, the normalised response (CAL-51 [46]) was 52.2%, the normalised response (SK-BR-3 [47]) was 59.4% and the normalised response (MDA-MB-453 [48]) was 73.8%. It also gave a normalised response (HCC1143 [49]) of 80.5%, a normalised response (DU-4475 [50]) of 66.4% and a normalised response (MDA-MB-436 [51]) of 65.1%. It also gave a normalised response (HCC1599 [52]) of 111%, a normalised response (MDA-MB-231 [53]) of 90.6% and a normalised response (CAL-120 [54]) of 79.4%. For the same compound, the normalised response (MCF-10A [55]) was 86.9%.
